According to patent US12589093B2, “Plasma kallikrein inhibitors and methods of use thereof in ocular disorders” (BIOCRYST PHARMACEUTICALS, INC., priority 2019, dated 2026):

Columns and labels:
[1] = Aqueous solubility (deionized water); assay type: physicochemical; conditions: room temperature
[2] = Partition coefficient (octanol-phosphate buffer); assay type: physicochemical; conditions: pH 7.4
pKa by UV-metric method = assay type: physicochemical; conditions: read-out: pKa Values (second value)
human plasma kallikrein = target: T1, human plasma kallikrein (Homo sapiens, UniProt P03952); test: Plasma kallikrein activity, chromogenic substrate S2302; assay type: biochemical
T1 construct: purchased Enzyme Research Laboratories, South Bend, IN, USA
Method: The effect of compounds of the disclosure on human plasma kallikrein activity is determined by the method described in Zhang et al. (Medicinal Chemistry, 2006, No. 6, p 547). Briefly, plasma kallikrein activity is determined using a chromogenic substrate (S2302). In these experiments, 2 nM plasma kallikrein (Enzyme Research Laboratories, South Bend, IN, USA) is incubated with 80 μM S2302 (H-D-Pro-Phe-Arg-p-nitroaniline) in the absence or presence of increasing concentrations of compounds of the disclosure in a final volume of 200 μL Tris-HCI buffer (200 mM NaCl; 2.5 mM CaCl2; 50 mM Tris-HCl, pH 7.8). Assay reactions were initiated by adding enzyme into pre-mixed solution of inhibitors and substrate (enzyme initiated reaction) After incubation at 30° C., the activity of plasma kallikrein is measured as a change in absorbance at OD 405 nm (for example using a BioTek PowerWave X340 Microplate Reader, Winooski, VT, USA or equivalent device). Data are analyzed using appropriate software (for example, Four Parameter Logistic Curve, SigmaPlot software, Systat Software, Inc., San Jose, CA, USA or equivalent).

Dutch belted rabbits = test: Ocular tolerability after suprachoroidal (SCS) injection; assay type: in vivo
Method: (§1) Dutch belted rabbits were used in the study.
(§2) 100 μL of the suspension was administered bilaterally to the suprachoroidal space of the eye, at a dose of 0.5 mg/eye. Two rabbits (4 eyes) were treated per time point, except at day 28, when 3 rabbits were treated. Plasma was collected at 3 hours, 1 day, 3 days, 7 days, 10 days, 14 days, 21 days, 28 days, 56 days, and 84 days post-dose. Aqueous humor, vitreous humor, peripheral retina, peripheral sclera/choroid/RPE, central retina, and central sclera/choroid/RPE punch punch tissues were collected at 1 day, 7 days, 14 days, 28 days, 56 days and 84 days post-dose. Ocular examinations and intraocular pressure (IOP) were also assessed, anterior and posterior segments, at 1 day, 7 days, 14 days, 28 days, 56 days, and 84 days post-dose. Redness, chemosis, discharge, opacity, aqueous flare, cellular flare, vitreous flare, retinal vasculature, retinal and choroidal pathology were assessed at those time points.

[3] = Ocular PK (tissue drug levels) after SCS injection; assay type: in vivo, Dutch belted rabbits
Method: as §1, §2

[4] = Systemic (plasma) PK after SCS injection; assay type: in vivo, Dutch belted rabbits; conditions: SCS 0.5 mg/eye, FIG. 5
Method: as §1, §2

T1 sequence (P03952 391-638 limits assumed): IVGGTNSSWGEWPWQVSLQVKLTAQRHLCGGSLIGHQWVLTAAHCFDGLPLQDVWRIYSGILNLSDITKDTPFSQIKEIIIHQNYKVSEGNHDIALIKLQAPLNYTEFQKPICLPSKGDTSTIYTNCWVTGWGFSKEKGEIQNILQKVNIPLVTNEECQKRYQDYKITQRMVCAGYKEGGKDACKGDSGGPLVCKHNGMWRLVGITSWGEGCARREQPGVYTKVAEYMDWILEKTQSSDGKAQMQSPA
T1 sequence (P03952 20-390 partner limits assumed): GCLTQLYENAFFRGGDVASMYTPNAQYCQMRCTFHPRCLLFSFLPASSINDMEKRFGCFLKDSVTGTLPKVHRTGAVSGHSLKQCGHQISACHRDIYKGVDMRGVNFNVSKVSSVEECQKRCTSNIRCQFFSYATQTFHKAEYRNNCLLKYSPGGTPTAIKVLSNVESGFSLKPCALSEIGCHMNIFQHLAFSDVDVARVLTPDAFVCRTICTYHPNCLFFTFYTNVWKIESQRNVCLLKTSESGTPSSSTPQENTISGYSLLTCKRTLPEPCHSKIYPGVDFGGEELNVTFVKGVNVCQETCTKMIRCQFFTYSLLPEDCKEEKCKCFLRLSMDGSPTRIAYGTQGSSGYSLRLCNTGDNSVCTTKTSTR

In the case of `C=Cc1cc(C(=O)Nc2ccc(C(=N)N)cc2)c(-c2ccc(C(=O)NCC3CC3)nc2C(=O)O)cc1OC.Cl` [BCX4161, avoralstat], the solubility [1] is reported as 20 to 40 µg/mL, the “Partition Coefficient (octanol-phosphate buffer), log D7.4” value [2] is reported as “log D7.4 = 1.9” and the pKa (pKa by UV-metric method) is reported as 11.4. For the same compound, the “inhibition of human plasma kallikrein activity (in words)” value (human plasma kallikrein) was “potent and highly specific inhibitor”, the tolerability (Dutch belted rabbits; 0.5% suspension, single SCS injection, 0.5 mg/eye) was “well tolerated” and the ocular exam score (Dutch belted rabbits; all observations, SCS 0.5 mg/eye) was 0. For the same compound, the “conjunctival redness and chemosis” value (Dutch belted rabbits; day 1 post-dose, SCS 0.5 mg/eye) was “Mild”, the adverse events (Dutch belted rabbits; days 7, 14, 28, 56, or 84 post-dose, SCS 0.5 mg/eye) was “No adverse events” and the “duration of highly favorable PK profile” value ([3]; 0.5% suspension, single SCS injection) was “at least 3 months”. The “drug levels in central and peripheral RPE/choroid/sclera” value ([3]; SCS 0.5 mg/eye, FIG. 1) was “High drug levels”, the “drug levels in central and peripheral retina” value ([3]; SCS 0.5 mg/eye, FIG. 2) was “High levels” and the “drug levels in the aqueous humor” value ([3]; SCS 0.5 mg/eye, FIG. 4C) was “low levels”. The “drug levels in the vitreous humor” value ([3]; SCS 0.5 mg/eye, FIGS. 4A and 4B) was “moderate to low levels”, the “time high drug levels present in central and peripheral RPE/choroid/sclera” value ([3]; after SCS injection 0.5 mg/eye) was at least 84 days and the “time high drug levels present in central and peripheral retina” value ([3]; after SCS injection 0.5 mg/eye) was at least 84 days. For the same compound, the systemic exposure [4] was “minimal to no systemic exposure”.
